Assay results taken from PMC2777267, “Crystal Structures of Wzb of Escherichia coli and CpsB of Streptococcus pneumoniae, Representatives of Two Families of Tyrosine Phosphatases that Regulate Capsule Assembly” (Journal of Molecular Biology, 2009).

How the values were obtained:
Cps4B [1] = molecular target: T1, Cps4B (Streptococcus pneumoniae, UniProt Q9AHD4); test: absorbance at […] nm; assay type: biochemical; set-up: gene cpsB; recombinant, produced as described earlier; PHP-fold metal-dependent phosphatase with three active-site metals; 1 molecule per asymmetric unit; conditions: 25 mM Tris-Cl pH 8.0, 50 mM NaCl, 2.5 mM pNPP, room temperature; 0.5 mM Cu2+, Co2+ or Mn2+ added
T1 sequence (Q9AHD4 whole entry, looked up): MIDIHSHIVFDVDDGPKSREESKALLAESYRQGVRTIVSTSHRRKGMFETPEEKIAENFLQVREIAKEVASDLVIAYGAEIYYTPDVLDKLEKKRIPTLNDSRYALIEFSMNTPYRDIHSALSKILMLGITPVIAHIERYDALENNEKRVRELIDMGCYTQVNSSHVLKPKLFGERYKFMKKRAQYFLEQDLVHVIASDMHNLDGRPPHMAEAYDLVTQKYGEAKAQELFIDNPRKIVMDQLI

Cps4B [2] = molecular target: T1, Cps4B; set-up: gene cpsB; conditions: active site, bound to three metals, Arg139 and Arg206; soak up to 50 mM phosphate

Structure (SMILES)	absorbance at 405 nm (Cps4B [1])	X-ray crystal structure, 2.2 A, phosphate soak (Cps4B [2])
O=[N+]([O-])c1ccc(OP(=O)(O)O)cc1 [para-nitrophenylphosphate]	it is a relatively poor catalyst with artificial substrate para-nitrophenylphosphate (pNPP)	
O=P(O)(O)O [phosphate]		The phosphate is tightly bound to the active site by a multitude of interactions
